What was measured:
Experiment in all cases: relative viability (nuclei count vs DMSO), 5 days (fraction); higher = more cells survive
XMD8-85 + Dasatinib = compound: CN1CCN(CC1)C2=CC(=C(C=C2)NC3=NC=C4C(=N3)N(C5=CC=CC=C5C(=O)N4C)C)OC [XMD8-85] + Cc1nc(Nc2ncc(C(=O)Nc3c(C)cccc3Cl)s2)cc(N2CCN(CCO)CC2)n1 [Dasatinib] (partner 0.075 µM)
Procedure, shortened: (§1)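 Relative viability divides the nuclei count in treated wells by that in vehicle wells. Lung cancer cell lines were seeded in 1536-well plates, dosed by pin tool the next day, and fixed and stained after 5 days in one step with final 0.05% Triton X-100, 1% formaldehyde and 1 ug/ml Hoechst. Dosing was a single drug or a fixed anchor-drug dose plus five library-drug doses (not always all listed) in √10 steps, and values are medians of duplicate plates imaged at 4×.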

XMD8-85 + Linsitinib = compound: CN1CCN(CC1)C2=CC(=C(C=C2)NC3=NC=C4C(=N3)N(C5=CC=CC=C5C(=O)N4C)C)OC [XMD8-85] + C[C@]1(O)C[C@@H](c2nc(-c3ccc4ccc(-c5ccccc5)nc4c3)c3c(N)nccn32)C1 [Linsitinib] (partner 1 µM)
Procedure, shortened: as §1

XMD8-85 + Pemetrexed = compound: CN1CCN(CC1)C2=CC(=C(C=C2)NC3=NC=C4C(=N3)N(C5=CC=CC=C5C(=O)N4C)C)OC [XMD8-85] + Nc1nc2[nH]cc(CCc3ccc(C(=O)N[C@@H](CCC(=O)O)C(=O)O)cc3)c2c(=O)[nH]1 [Pemetrexed] (partner 0.2 µM)
Procedure, shortened: as §1

4EGI-1 + Lapatinib = compound: O=C(O)C(Cc1ccccc1[N+](=O)[O-])=NNc1nc(-c2ccc(Cl)c(Cl)c2)cs1 (mixture of isomers) [4EGI-1] + CS(=O)(=O)CCNCc1ccc(-c2ccc3ncnc(Nc4ccc(OCc5cccc(F)c5)c(Cl)c4)c3c2)o1 [Lapatinib] (partner 2 µM)
Procedure, shortened: as §1

Row | Cell Line | relative viability (XMD8-85 + Dasatinib; first compound 0.08 µM) | relative viability (XMD8-85 + Dasatinib; first compound 0.253 µM) | relative viability (XMD8-85 + Dasatinib; first compound 0.8 µM) | relative viability (XMD8-85 + Dasatinib; first compound 2.53 µM) | relative viability (XMD8-85 + Dasatinib; first compound 8 µM) | relative viability (XMD8-85 + Linsitinib; first compound 0.08 µM) | relative viability (XMD8-85 + Linsitinib; first compound 0.253 µM) | relative viability (XMD8-85 + Linsitinib; first compound 0.8 µM) | relative viability (XMD8-85 + Linsitinib; first compound 2.53 µM) | relative viability (XMD8-85 + Linsitinib; first compound 8 µM) | relative viability (XMD8-85 + Pemetrexed; first compound 0.08 µM) | relative viability (XMD8-85 + Pemetrexed; first compound 0.253 µM) | relative viability (XMD8-85 + Pemetrexed; first compound 0.8 µM) | relative viability (XMD8-85 + Pemetrexed; first compound 2.53 µM) | relative viability (XMD8-85 + Pemetrexed; first compound 8 µM) | relative viability (4EGI-1 + Lapatinib; first compound 0.5 µM) | relative viability (4EGI-1 + Lapatinib; first compound 1.581 µM) | relative viability (4EGI-1 + Lapatinib; first compound 5 µM) | relative viability (4EGI-1 + Lapatinib; first compound 15.81 µM) | relative viability (4EGI-1 + Lapatinib; first compound 50 µM)
1 | NCI-H1755 | 0.409 | 0.432 | 0.434 | 0.482 | 0.353 | 1.06 | 1.01 | 1 | 1.09 | 0.907 | 0.405 | 0.441 | 0.444 | 0.427 | 0.444 | 1.06 | 1.01 | 0.967 | 0.883 | 0.284
2 | NCI-H2347 | 0.304 | 0.332 | 0.289 | 0.313 | 0.489 | 0.91 | 0.923 | 0.808 | 1.04 | 0.796 | 0.393 | 0.529 | 0.427 | 0.406 | 0.431 | 0.898 | 0.746 | 0.909 | 0.855 | 0.844
3 | LXF-289 | 0.214 | 0.23 | 0.208 | 0.243 | 0.2 | 0.916 | 0.927 | 0.964 | 1.01 | 0.883 | 0.856 | 0.88 | 0.878 | 0.949 | 0.899 | 0.893 | 0.912 | 0.893 | 0.763 | 0.677
4 | NCI-H1666 | 0.822 | 0.827 | 0.808 | 0.773 | 0.701 | 1.04 | 0.79 | 0.859 | 0.769 | 0.696 | 0.862 | 0.811 | 0.83 | 0.82 | 0.673 | 0.743 | 0.616 | 0.653 | 0.526 | 0.229
5 | HCC-78 | 0.567 | 0.48 | 0.42 | 0.352 | 0.242 | 0.594 | 0.532 | 0.445 | 0.443 | 0.382 | 0.915 | 0.892 | 0.906 | 0.95 | 0.855 | 0.842 | 0.551 | 0.752 | 0.788 | 0.947
6 | NCI-H2126 | 0.601 | 0.625 | 0.613 | 0.562 | 0.417 | 0.69 |  | 0.766 | 0.726 | 0.681 | 0.705 | 0.758 | 0.693 | 0.707 | 0.623 | 0.832 | 0.836 | 0.76 | 0.736 | 0.643
7 | NCI-H1993 | 0.522 | 0.518 | 0.648 | 0.744 | 0.744 | 0.814 | 0.669 | 0.812 | 0.718 | 0.704 | 0.604 | 0.572 | 0.681 | 0.739 | 0.563 | 0.945 | 0.718 | 0.838 | 0.693 | 0.767
8 | LOU-NH91 | 0.553 | 0.555 | 0.573 | 0.571 | 0.459 | 0.946 | 0.979 | 0.909 | 0.914 | 0.751 | 0.281 | 0.333 | 0.311 | 0.295 | 0.378 | 0.807 |  | 0.822 | 0.787 | 0.552
9 | NCI-H1437 | 0.372 | 0.364 | 0.398 | 0.394 | 0.282 | 0.902 | 0.944 | 1.09 | 0.92 | 0.413 | 0.29 | 0.33 | 0.363 | 0.317 | 0.272 | 0.914 | 0.861 | 0.671 | 0.184 | 0.127
10 | H3255 | 0.45 | 0.325 | 0.353 | 0.333 | 0.335 | 0.994 | 0.872 | 0.955 | 0.946 | 0.629 | 0.558 |  | 0.525 | 0.599 | 0.375 | 0.254 | 0.228 | 0.259 | 0.222 | 0.279
11 | NCI-H322M | 0.246 | 0.249 | 0.289 | 0.232 | 0.19 | 0.853 | 0.986 | 0.864 | 0.825 | 0.933 | 0.579 | 0.596 | 0.606 | 0.59 | 0.48 | 0.617 | 0.558 | 0.637 | 0.566 | 0.427
12 | UMC-11 | 0.418 | 0.437 | 0.556 | 0.512 | 0.335 | 1.01 | 0.922 | 1.15 | 0.848 | 0.512 | 0.818 | 0.745 | 0.82 | 0.707 | 0.391 | 1.19 | 0.825 | 1.31 | 1.17 | 0.669
13 | NCI-H661 | 0.81 | 0.888 | 0.856 | 0.834 | 0.455 | 0.523 | 0.518 | 0.523 | 0.579 | 0.448 | 0.944 | 0.946 | 0.93 | 1.01 | 0.782 | 0.666 | 0.46 | 0.566 | 0.43 | 0.342
14 | NCI-H1915 | 0.328 | 0.339 | 0.348 | 0.326 | 0.32 | 1.15 | 1.15 | 1.08 | 1.16 | 0.999 | 0.434 | 0.523 | 0.484 | 0.5 | 0.457 | 0.99 | 0.747 | 0.954 | 1.03 | 0.679
15 | NCI-H2009 | 0.285 | 0.29 | 0.288 | 0.209 | 0.167 | 1.17 | 1.12 | 1.21 | 1.23 | 0.636 | 0.958 | 1.03 | 1.1 | 0.885 | 0.767 | 1.06 | 0.879 | 0.962 | 0.744 | 0.177
16 | RERF-LC-KJ | 0.939 | 0.743 | 0.816 | 0.858 | 0.574 | 0.826 | 0.903 | 0.881 | 0.804 | 0.883 | 0.46 | 0.478 | 0.484 | 0.497 | 0.43 | 0.93 | 0.677 | 0.808 | 0.64 | 0.644
17 | 201T |  | 0.641 | 0.55 | 0.616 | 0.529 | 1 | 1.05 | 0.994 | 1.05 | 1.01 | 0.329 | 0.329 | 0.368 | 0.325 | 0.288 | 1.04 | 0.986 | 1.04 | 1.02 | 0.659
18 | HCC-827 | 0.403 | 0.33 | 0.34 | 0.439 | 0.457 | 0.934 | 0.975 | 1.02 | 0.97 | 0.974 | 0.284 | 0.251 | 0.266 | 0.254 | 0.301 | 0.197 | 0.201 | 0.15 |  | 0.168
19 | NCI-H838 | 0.397 | 0.277 | 0.281 | 0.28 | 0.191 | 0.979 | 0.958 | 1.2 | 1 | 0.507 | 0.243 | 0.247 | 0.249 | 0.208 | 0.184 | 1.24 |  | 1.16 | 0.654 | 0.173
20 | NCI-H1734 | 0.463 | 0.491 | 0.453 | 0.574 | 0.499 | 1.01 | 0.766 | 0.863 | 0.816 | 0.607 |  | 0.405 | 0.419 | 0.354 | 0.366 | 1.15 | 0.939 | 1.15 | 0.903 | 0.393
21 | NCI-H1355 | 0.671 | 0.753 | 0.653 | 0.819 |  | 0.807 | 0.913 | 0.828 | 0.715 | 0.829 | 1.04 | 1.02 | 1.03 | 1.07 | 0.976 | 1.11 | 0.931 | 1.03 | 0.989 | 0.586
22 | NCI-H2085 | 0.275 | 0.265 | 0.235 | 0.203 | 0.197 | 0.585 | 0.943 | 0.935 | 0.885 | 0.674 | 0.889 | 0.826 | 0.849 | 0.811 | 0.713 | 0.857 | 0.769 | 0.807 | 0.586 | 0.357
23 | NCI-H520 | 0.199 | 0.208 | 0.182 | 0.216 | 0.159 | 0.86 | 0.914 | 1.16 | 0.849 | 0.67 | 0.709 | 0.697 | 0.75 | 0.595 | 0.361 | 0.98 | 0.882 | 0.963 | 0.738 | 0.144
24 | NCI-H647 | 0.197 | 0.141 | 0.16 | 0.196 | 0.122 | 1.29 | 1.35 | 1.55 | 0.862 | 0.634 | 0.172 | 0.16 | 0.18 | 0.151 | 0.116 | 1.03 | 0.989 | 1.08 | 0.505 | 0.124
25 | NCI-H358 | 0.167 | 0.173 | 0.169 | 0.207 | 0.18 | 0.756 | 0.832 |  | 0.643 | 0.442 | 0.165 | 0.176 | 0.175 | 0.164 | 0.183 | 0.483 | 0.437 | 0.603 | 0.395 | 0.211
26 | NCI-H1944 | 0.203 | 0.228 | 0.204 | 0.223 | 0.203 | 1.1 | 1.26 | 1.25 | 1.44 | 1.04 | 0.517 | 0.72 | 0.638 | 0.615 | 0.639 | 0.816 |  | 0.776 | 0.745 | 0.456
27 | LU99A | 0.477 | 0.675 | 0.61 | 0.688 | 0.388 | 0.451 | 0.566 | 0.545 | 0.531 | 0.459 | 0.162 | 0.179 | 0.183 | 0.199 | 0.165 | 1.04 |  | 1.08 | 0.739 | 0.214
28 | SW 1573 | 0.466 | 0.364 | 0.393 | 0.499 | 0.343 | 0.873 | 0.802 |  | 0.698 | 0.655 | 0.831 | 0.813 | 1.06 | 0.895 | 0.461 | 1.33 | 0.86 | 1.17 | 0.898 | 1.17
29 | HARA | 0.268 | 0.314 | 0.281 | 0.261 | 0.238 | 1.06 | 0.933 | 0.945 | 0.668 | 0.243 | 0.26 | 0.227 | 0.307 | 0.295 | 0.229 | 0.697 | 0.732 | 0.817 | 0.724 | 0.257

Reference: the supplement of paper PMC10307832
